Results taken from US20040156869A1, “2-substituted quinazolin-4-ylamine analogues” (Neurogen Corporation, priority 2002, published 2004).
pKi: −log10 of the molar value.

What follows are molecules tested against human capsaicin receptor (VR1) (Homo sapiens, UniProt Q8NER1) (assay: Capsaicin receptor binding assay ([3H]RTX competition, VR1-transfected HEK293 membranes)).
Sequence of human capsaicin receptor (VR1) (Q8NER1 whole entry): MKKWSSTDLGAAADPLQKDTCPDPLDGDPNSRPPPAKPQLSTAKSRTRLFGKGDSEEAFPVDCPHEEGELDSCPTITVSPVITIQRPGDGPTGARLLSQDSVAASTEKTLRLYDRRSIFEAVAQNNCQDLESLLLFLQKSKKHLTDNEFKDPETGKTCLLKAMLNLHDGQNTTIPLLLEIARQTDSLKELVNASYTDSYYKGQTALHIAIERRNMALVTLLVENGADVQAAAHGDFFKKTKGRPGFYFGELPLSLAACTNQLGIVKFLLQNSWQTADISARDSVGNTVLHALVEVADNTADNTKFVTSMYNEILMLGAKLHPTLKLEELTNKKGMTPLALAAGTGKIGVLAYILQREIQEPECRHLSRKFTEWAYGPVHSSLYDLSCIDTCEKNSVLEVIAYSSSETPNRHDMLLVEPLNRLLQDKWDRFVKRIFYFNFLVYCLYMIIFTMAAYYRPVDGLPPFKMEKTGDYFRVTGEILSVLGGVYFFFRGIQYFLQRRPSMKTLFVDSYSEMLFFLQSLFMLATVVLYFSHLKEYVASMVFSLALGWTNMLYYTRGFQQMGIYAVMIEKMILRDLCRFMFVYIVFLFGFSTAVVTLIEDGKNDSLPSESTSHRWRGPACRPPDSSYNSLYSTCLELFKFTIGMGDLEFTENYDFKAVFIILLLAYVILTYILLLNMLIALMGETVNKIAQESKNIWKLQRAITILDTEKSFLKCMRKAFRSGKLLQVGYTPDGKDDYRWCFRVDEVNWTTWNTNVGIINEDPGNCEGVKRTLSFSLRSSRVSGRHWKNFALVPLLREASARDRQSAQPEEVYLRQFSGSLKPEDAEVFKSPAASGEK
Work on `CC(C)c1ccc(Nc2nc(CN3C[C@@H](C)O[C@@H](C)C3)nc3cc(-c4ncccc4C(F)(F)F)ccc23)cc1` [Compound 688, [2-(2,6-Dimethyl-morpholin-4-ylmethyl)-7-(3-trifluoromethyl-pyridin-2-yl)-quinazolin-4-yl]-(4-isopropyl-phenyl)-amine (cis)] yielded a pKi greater than 6.00.
`CCN(Cc1cc(Nc2ccc(C(F)(F)F)cc2)c2ccc(-c3ncccc3C(F)(F)F)nc2n1)C1CCCCC1` [Compound 813, [2-[(Cyclohexyl-ethyl-amino)-methyl]-7-(3-trifluoromethyl-pyridin-2-yl)-[1,8]naphthyridin-4-yl]-(4-trifluoromethyl-phenyl)-amine] showed a pKi greater than 6.00.
`COCCOCc1nc(Nc2ccc(C(C)(C)C#N)cc2)c2ccc(-c3ncccc3Cl)nc2n1` [Compound 83, 2-{4-[7-(3-Chloro-pyridin-2-yl)-2-(2-methoxy-ethoxymethyl)-pyrido[2,3-d]pyrimidin-4-ylamino]-phenyl}-2-methyl-propionitrile] was tested, and the pKi was greater than 6.00.
`CN1CCCN(Cc2nc(Nc3ccc(C(F)(F)F)cc3)c3ccc(-c4ncccc4C(F)(F)F)cc3n2)CC1` [Compound 705, [2-(4-Methyl-[1,4]diazepan-1-ylmethyl)-7-(3-trifluoromethyl-pyridin-2-yl)-quinazolin-4-yl]-(4-trifluoromethyl-phenyl)-amine] was tested, and the pKi was greater than 6.00.
Work on `O=S1(=O)CCCCN1Cc1nc(Nc2ccc(C(F)(F)F)cc2)c2ccc(-c3ncccc3C(F)(F)F)cc2n1` [Compound 756, [2-(1,1-Dioxo-1λ^6-[1,2]thiazinan-2-ylmethyl)-7-(3-trifluoromethyl-pyridin-2-yl)-quinazolin-4-yl]-(4-trifluorornethyl-phenyl)-amine] yielded a pKi greater than 6.00.
Molecule `CC1(C)CCCN(Cc2nc(Nc3ccc(C(F)(F)F)nc3)c3ccc(-c4ncccc4C(F)(F)F)cc3n2)C1` [Compound 556, [2-(3,3-Dimethyl-piperidin-1-ylmethyl)-7-(3-trifluoromethyl-pyridin-2-yl)-quinazolin-4-yl]-(6-trifluoromethyl-pyridin-3-yl)-amine] has a pKi greater than 6.00.
`C=C(C)CN(CC)Cc1nc(Nc2ccc(C(F)(F)F)nc2)c2ccc(-c3ncccc3C(F)(F)F)cc2n1` [Compound 380, [2-{[Ethyl-(2-methyl-allyl)-amino]-methyl}-7-(3-trifluoromethyl-pyridin-2-yl)-quinazolin-4-yl]-(6-trifluoromethyl-pyridin-3-yl)-amine] showed a pKi greater than 6.00.
`CO[C@H](C)c1nc(Nc2ccc(C(F)(F)F)cc2)c2ccc(-c3ncccc3Cl)nc2n1` [Compound 245, (R)-[7-(3-Chloro-pyridin-2-yl)-2-(1-methoxy-ethyl)-pyrido[2,3-d]pyrimidin-4-yl]-(4-trifluoromethyl-phenyl)-amine] showed a pKi greater than 6.00.
`CC(=O)C(C)(C)c1ccc(Nc2nc(COCC(C)C)nc3nc(-c4ncccc4C)ccc23)cc1` [Compound 209, 3-{4-[2-Isobutoxymethyl-7-(3-methyl-pyridin-2-yl)-pyrido[2,3-d]pyrimidin-4-ylamino]-phenyl}-3-methyl-butan-2-one] gave a pKi greater than 6.00.
`CCOCc1nc(Nc2ccc(C(F)F)cc2)c2ccc(-c3ncccc3Cl)nc2n1` [Compound 244, [7-(3-Chloro-pyridin-2-yl)-2-ethoxymethyl-pyrido[2,3-d]pyrimidin-4-yl]-(4-difluoromethyl-phenyl)-amine] showed a pKi greater than 6.00.
In the case of `CCOCc1nc(Nc2ccc(C(F)(F)F)cc2)c2ccc(-c3ncccc3C)nc2n1` [Compound 138, [2-Ethoxymethyl-7-(3-methyl-pyridin-2-yl)-pyrido[2,3-d]pyrimidin-4-yl]-(4-trifluoromethyl-phenyl)-amine], the pKi was greater than 6.00.
Molecule `CC(C)COCc1nc(Nc2ccc(Cl)c(F)c2)c2ccc(-c3ncccc3C(F)(F)F)nc2n1` [Compound 273, (4-Chloro-3-fluoro-phenyl)-[2-isobutoxymethyl-7-(3-trifluoromethyl-pyridin-2-yl)-pyrido[2,3-d]pyrimidin-4-yl]-amine] has a pKi greater than 6.00.
